The text below walks through data of patent JP2011032172A, “酸化ストレス低減剤。” (Mitsubishi Gas Chemical Co Inc, priority 2009, dated 2011).

The subject of one assay is 8−OHdG. As to the kind of experiment: urinary 8-OHdG production rate in placebo-controlled double-blind parallel-group human trial (ELISA). In kind it is in vivo. The note with it: healthy adult men and women 45-65 years; PQQ disodium salt 20 mg hard capsule after breakfast daily, 3 months; early-morning urine before and at 4, 8, 12 weeks; result in words (rate calculated in ng/kg/hr).

Assay [1] has as its system hexanoyl-lysine (ヘキサノイルリジン(HEL)). As to the kind of experiment: urinary hexanoyl-lysine (HEL) production rate in the same human trial (ELISA). The note with it: healthy adult men and women 45-65 years; PQQ disodium salt 20 mg hard capsule after breakfast daily, 3 months; urine from same two groups as Example 1; result in words (rate calculated in pmol/kg/hr). Type of assay: in vivo.

Turning to `O=C(O)c1cc(C(=O)O)c2c(n1)C(=O)C(=O)c1cc(C(=O)O)[nH]c1-2` [PQQ, ピロロキノリンキノン, 二ナトリウム塩], in the assay on 8−OHdG, the “8−OHdG production rate” value is reported as “低下傾向”. Besides, the HEL production rate entry in assay [1] was “低下傾向”.
